The target in one data set is T1, Pseudomonas aeruginosa phosphorylcholine phosphatase (PchP) (Pseudomonas aeruginosa, UniProt Q9HTR2).
T1 construct: His-tag fusion produced in E. coli BL21 CodonPlus; purified with EDTA to remove residual metal
T1 sequence (Q9HTR2 23-349): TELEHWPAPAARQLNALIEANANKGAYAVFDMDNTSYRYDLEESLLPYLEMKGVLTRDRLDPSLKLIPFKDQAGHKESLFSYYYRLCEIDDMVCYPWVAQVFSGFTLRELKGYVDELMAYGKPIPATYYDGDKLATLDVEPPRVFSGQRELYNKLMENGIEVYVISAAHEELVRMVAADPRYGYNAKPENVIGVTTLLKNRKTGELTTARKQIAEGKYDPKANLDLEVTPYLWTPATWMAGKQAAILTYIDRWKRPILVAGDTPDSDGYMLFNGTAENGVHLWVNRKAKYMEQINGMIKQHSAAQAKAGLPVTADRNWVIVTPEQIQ
The experiment in a line: biochemical.
Conditions: not given
The text has this: inhibition of p-NPP hydrolysis, DYNAFIT global fit on Pseudomonas aeruginosa phosphorylcholine phosphatase (PchP)
For `CC(C)(N)CO` [2-amino-2-methyl-1-propanol], the Ki was determined as 210 ± 10 µM.
Compound `C[N+](C)(C)CC(=O)[O-]` [Betaine] had an inhibition constant Ki of 1440 ± 90 µM.
`C[N+](C)(C)CCCl` [Chlorocholine] had a Ki of 120 ± 10 µM.
Consider `C[N+](C)(C)CCO` [Choline], for which the Ki was determined as 100 ± 10 µM.
Still for that read-out and setting: the result for `C[N+](C)(C)CCCCCCCCCC[N+](C)(C)C` [Decamethonium] reads 80 ± 10 µM.
As for `C[N+](C)(C)CCCCCC[N+](C)(C)C` [Hexamethonium], the Ki came out at 80 ± 10 µM.
Same read-out and setting: the figure for `N[C@H](CO)Cc1c[nH]cn1` [L-histidinol] is 310 ± 80 µM; for `CN(C)C(=O)Oc1cccc([N+](C)(C)C)c1` [Neostigmine] it is 570 ± 50 µM; for `C[N+](C)(C)C` [Tetramethylammonium] it is 35 ± 8 µM.
For `CN(C)C` [Trimethylamine], the Ki turned out to be 60 ± 10 µM.
For the compound `COc1cc2c3cc1Oc1cc(ccc1O)C[C@@H]1c4c(cc(OC)c(O)c4Oc4ccc(cc4)C[C@@H]3N(C)CC2)CC[N+]1(C)C` [Tubocurarine], affinity was put at a Ki of 2510 ± 210 µM. This Ki lies about 42-fold higher than the previous one.

For a further data set, the system named is C[N+](C)(C)CCOP(=O)([O-])O. The experiment in a line: purified protein. Particulars: 0.25-2 mM Mg2+, 100 mM sodium acetate pH 5.0, 37 °C, kcat1 of productive EAS complex.
Text: Pi release assay, DYNAFIT global fit on Pseudomonas aeruginosa phosphorylcholine phosphatase (PchP)
As for “Pseudomonas aeruginosa phosphorylcholine phosphatase (PchP) (Pseudomonas aeruginosa PAO1)”, the Km was found to be 21 ± 8 µM and the kcat came out at 121 ± 8 s⁻¹.

These data come from paper PMC3102446, “Different Effects of Mg^2+ and Zn^2+ on the Two Sites for Alkylammonium Compounds in Pseudomonas aeruginosa Phosphorylcholine Phosphatase” (Enzyme Research, 2011).
